Source: ChEMBL document CHEMBL3525933 (Drug Metab Dispos, 2012)

Experiments:
[1] = Drug excretion in streptozotocin-induced diabetic Wistar rat feces assessed as 1,7-dihydroxyxanthone metabolite level at 400 mg/kg, po administered as single dose by HPLC-DAD analysis; type: ADME, organism-based; design: dose 400 mg/kg, route oral; conditions: in vivo
[2] = Cmax in streptozotocin-induced diabetic Wistar rat at 400 mg/kg, po administered as single dose by HPLC-DAD analysis; type: ADME, organism-based; design: dose 400 mg/kg, route oral; conditions: in vivo
Plasma [3] = experiment: Drug uptake in pseudo-germ free Wistar rat plasma at 400 mg/kg, po administered as single dose by HPLC-DAD analysis; type: ADME, organism-based; design: dose 400 mg/kg, route oral; conditions: in vivo
Plasma [4] = experiment: Drug metabolism in conventional Wistar rat plasma assessed as 1,7-dihydroxyxanthone metabolite formation at 400 mg/kg, po administered as single dose by HPLC-DAD analysis; type: ADME, organism-based; design: dose 400 mg/kg, route oral; conditions: in vivo
[5] = Apparent oral clearance in streptozotocin-induced diabetic Wistar rat at 400 mg/kg, po administered as single dose by HPLC-DAD analysis; type: ADME, organism-based; design: dose 400 mg/kg, route oral; conditions: in vivo
Plasma [6] = experiment: Drug metabolism in Wistar rat plasma assessed as retention time by HPLC-DAD analysis; type: ADME, cell-free
[7] = Drug excretion in pseudo-germ free Wistar rat urine assessed as 1,7-dihydroxyxanthone metabolite level at 400 mg/kg, po administered as single dose by HPLC-DAD analysis; type: ADME, organism-based; design: dose 400 mg/kg, route oral; conditions: in vivo
[8] = AUC(0 to t) in pseudo-germ free Wistar rat at 400 mg/kg, po administered as single dose by HPLC-DAD analysis; type: ADME, organism-based; design: dose 400 mg/kg, route oral; conditions: plasma
[9] = Drug excretion in pseudo-germ free Wistar rat urine assessed as unchanged drug level at 400 mg/kg, po administered as single dose by HPLC-DAD analysis; type: ADME, organism-based; design: dose 400 mg/kg, route oral; conditions: in vivo
Plasma [10] = experiment: Stability in Wistar rat plasma measured for 24 hrs at room temperature by HPLC-DAD analysis; type: ADME, cell-free
[11] = Apparent oral clearance in conventional Wistar rat at 400 mg/kg, po administered as single dose by HPLC-DAD analysis; type: ADME, organism-based; design: dose 400 mg/kg, route oral; conditions: in vivo
[12] = Drug excretion in pseudo-germ free Wistar rat feces assessed as 1,7-dihydroxyxanthone metabolite level at 400 mg/kg, po administered as single dose by HPLC-DAD analysis; type: ADME, organism-based; design: dose 400 mg/kg, route oral; conditions: in vivo
Plasma [13] = experiment: Drug level in streptozotocin-induced diabetic Wistar rat plasma treated with mangiferin at 400 mg/kg, po administered as single dose by HPLC-DAD analysis; type: ADME, organism-based; design: dose 400 mg/kg, route oral; conditions: in vivo
[14] = Tmax in pseudo-germ free Wistar rat at 400 mg/kg, po administered as single dose by HPLC-DAD analysis; type: ADME, organism-based; design: dose 400 mg/kg, route oral; conditions: in vivo
Plasma [15] = experiment: Drug recovery in Wistar rat plasma at 2000 ng/ml by HPLC-DAD analysis; type: ADME, cell-free
Plasma [16] = experiment: Drug metabolism in streptozotocin-induced diabetic Wistar rat plasma assessed as 1,7-dihydroxyxanthone metabolite formation at 400 mg/kg, po administered as single dose by HPLC-DAD analysis; type: ADME, organism-based; design: dose 400 mg/kg, route oral; conditions: in vivo
Plasma [17] = experiment: Stability in Wistar rat plasma measured within three freeze thaw cycles by HPLC-DAD analysis; type: ADME, cell-free
[18] = Drug excretion in pseudo-germ free Wistar rat urine assessed as norathyriol metabolite level at 400 mg/kg, po administered as single dose by HPLC-DAD analysis; type: ADME, organism-based; design: dose 400 mg/kg, route oral; conditions: in vivo
[19] = MRT(0 to t) in pseudo-germ free Wistar rat at 400 mg/kg, po administered as single dose by HPLC-DAD analysis; type: ADME, organism-based; design: dose 400 mg/kg, route oral; conditions: in vivo
[20] = MRT(0 to infinity) in conventional Wistar rat at 400 mg/kg, po administered as single dose by HPLC-DAD analysis; type: ADME, organism-based; design: dose 400 mg/kg, route oral; conditions: in vivo
Plasma [21] = experiment: Drug metabolism in pseudo-germ free Wistar rat plasma assessed as 1,7-dihydroxyxanthone metabolite formation at 400 mg/kg, po administered as single dose by HPLC-DAD analysis; type: ADME, organism-based; design: dose 400 mg/kg, route oral; conditions: in vivo
[22] = Drug excretion in conventional Wistar rat feces assessed as unchanged drug level at 400 mg/kg, po administered as single dose by HPLC-DAD analysis; type: ADME, organism-based; design: dose 400 mg/kg, route oral; conditions: in vivo
Plasma [23] = experiment: Drug uptake in conventional Wistar rat plasma at 400 mg/kg, po administered as single dose by HPLC-DAD analysis; type: ADME, organism-based; design: dose 400 mg/kg, route oral; conditions: in vivo
[24] = Drug excretion in streptozotocin-induced diabetic Wistar rat feces assessed as norathyriol metabolite level at 400 mg/kg, po administered as single dose by HPLC-DAD analysis; type: ADME, organism-based; design: dose 400 mg/kg, route oral; conditions: in vivo
[25] = Drug excretion in streptozotocin-induced diabetic Wistar rat feces assessed as unchanged drug level at 400 mg/kg, po administered as single dose by HPLC-DAD analysis; type: ADME, organism-based; design: dose 400 mg/kg, route oral; conditions: in vivo
[26] = Drug excretion in streptozotocin-induced diabetic Wistar rat urine assessed as unchanged drug level at 400 mg/kg, po administered as single dose by HPLC-DAD analysis; type: ADME, organism-based; design: dose 400 mg/kg, route oral; conditions: in vivo
Plasma [27] = experiment: Stability in Wistar rat plasma measured after storage at -80 degC for 20 days by HPLC-DAD analysis; type: ADME, cell-free; conditions: 480 h
[28] = Drug excretion in streptozotocin-induced diabetic Wistar rat urine assessed as norathyriol metabolite level at 400 mg/kg, po administered as single dose by HPLC-DAD analysis; type: ADME, organism-based; design: dose 400 mg/kg, route oral; conditions: in vivo
[29] = AUC(0 to infinity) in conventional Wistar rat at 400 mg/kg, po administered as single dose by HPLC-DAD analysis; type: ADME, organism-based; design: time infinity, dose 400 mg/kg, route oral; conditions: plasma

Drug excretion [1]: metabolite_not_detected
Cmax [2]: 2000 ng/mL
Drug uptake (Plasma [3]): Active
Drug metabolism (Plasma [4]): metabolite_not_detected
CL/F [5]: 772 mL/min/kg
Retention_time (Plasma [6]): 5.5 min
Drug excretion [7]: metabolite_not_detected
AUC(0-t) [8]: 4320 ng·h/mL
Drug excretion [9]: metabolite_detected
Stability (Plasma [10]): Stable
CL/F [11]: 2030 mL/min/kg
Drug excretion [12]: metabolite_not_detected
Drug metabolism (Plasma [13]): metabolite_detected
Tmax [14]: 2.89 h
Drug recovery (Plasma [15]): 75.8%
Drug metabolism (Plasma [16]): metabolite_not_detected
Stability (Plasma [17]): Stable
Drug excretion [18]: metabolite_not_detected
MRT last [19]: 7.42 h
MRT inf [20]: 7.77 h
Drug metabolism (Plasma [21]): metabolite_not_detected
Drug excretion [22]: metabolite_detected
Drug uptake (Plasma [23]): Active
Drug excretion [24]: metabolite_detected
Drug excretion [25]: metabolite_detected
Drug excretion [26]: metabolite_detected
Stability (Plasma [27]): Stable
Drug excretion [28]: metabolite_detected
AUC(0-inf) [29]: 3820 ng·h/mL
SMILES: O=c1c2cc(O)c(O)cc2oc2cc(O)c([C@@H]3O[C@H](CO)[C@@H](O)[C@H](O)[C@H]3O)c(O)c12 [MANGIFERIN]
